From US20230263822A1, “MODULATION OF FACTOR 11 EXPRESSION” (Ionis Pharmaceuticals, Inc., priority 2008, published 2023)
Strand notation (5' to 3'): a small letter for the sugar, then the base; units joined by * are phosphorothioate-linked, units joined directly phosphodiester-linked; [ ] holds rarer units or linkages, { } end groups; capitals alone tell only the bases. e = 2'-O-(2-methoxyethyl) (MOE); [5mC] = 5-methylcytosine; d = 2'-deoxy (DNA)

How the values were obtained:
[1] = Tolerability in CD1 mice: body weight and organ weight (Example 43); type: in vivo; conditions: 50 mg/kg s.c. twice per week for 6 weeks, at the end of the study
Source text: The body weights of the mice taken at the end of the study are presented in Table 104 and are expressed in grams.

[2] = Tolerability in CD1 mice: kidney function (Example 43); type: in vivo; conditions: 50 mg/kg s.c. twice per week for 6 weeks, plasma

Row | Substance | body weight [1] | BUN [2] | Creatinine [2]
1 | ISIS 449710: 3-8-3, 4-8-4, 2-10-2, 3-10-3 or 4-10-4 MOE microwalk gapmer (Table 46) (antisense e[5mC]*eA*e[5mC]*dA*dG*dT*dT*dT*d[5mC]*dT*dG*dG*d[5mC]*eA*eG*eG) | 42 g | 29 mg/dL | 0.2 mg/dL
2 | ISIS 449711: 3-8-3, 4-8-4, 2-10-2, 3-10-3 or 4-10-4 MOE microwalk gapmer (Table 46) (antisense eA*e[5mC]*dA*dG*dT*dT*dT*d[5mC]*dT*dG*dG*d[5mC]*eA*eG) | 42 g | 26 mg/dL | 0.2 mg/dL
